Test results: patent US7118895B2, “Process for producing aglycon by using diglycosidase and flavor-improved food containing the aglycon and converting agent to be used in the process” (Amano Enzyme Inc., priority 2000, dated 2006)

System: Crude diglycosidase
Assay: Examination of pH in the conversion into isoflavone aglycons by diglycosidase using soybean materials
Assay type: biochemical, Penicillium multicolor IAM7153
Conditions: for existing ratio of aglycon of each isoflavone family / Decomposition efficiency of glycitin family in roasted soy flour / Decomposition efficiency of glycitin family in soymilk: 55° C.
In short: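 HPLC readout: isoflavone glycosides vs aglycons. Substrates: 50 mg soy material (roasted flour, soymilk, defatted bean, concentrated protein), pH 2–11 (HCl/NaOH). Crude diglycosidase solution 1.88 AU/mL, matched pH; 55° C; quenched with ethanol at 0/1/3/6 h; centrifuged 15,000 rpm, 4° C, 10 min.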

COc1cc2c(=O)c(-c3ccc(O)cc3)coc2cc1O [glycitein]
existing ratio of aglycon of each isoflavone family (concentrated soybean protein, pH 3.7 for 6 hours): 78% | existing ratio of aglycon of each isoflavone family (defatted soybean, pH 3.4 for 6 hours): 68% | Decomposition efficiency of glycitin family in concentrated soybean protein (pH1.6, heat treatment of enzyme: no, reaction time 0 h): 11.3% | Decomposition efficiency of glycitin family in concentrated soybean protein (pH1.6, heat treatment of enzyme: no, reaction time 1 h): 11.6% | Decomposition efficiency of glycitin family in concentrated soybean protein (pH1.6, heat treatment of enzyme: no, reaction time 3 h): 11.7% | Decomposition efficiency of glycitin family in concentrated soybean protein (pH1.6, heat treatment of enzyme: no, reaction time 6 h): 11.7% | Decomposition efficiency of glycitin family in concentrated soybean protein (pH1.6, heat treatment of enzyme: yes, reaction time 6 h): 10.8% | Decomposition efficiency of glycitin family in roasted soy flour (pH2, heat treatment of enzyme no, reaction time 0 h): 7.9 | Decomposition efficiency of glycitin family in roasted soy flour (pH2, heat treatment of enzyme no, reaction time 1 h): 9.4 | Decomposition efficiency of glycitin family in roasted soy flour (pH2, heat treatment of enzyme no, reaction time 3 h): 9.5 | Decomposition efficiency of glycitin family in roasted soy flour (pH2, heat treatment of enzyme no, reaction time 6 h): 10.1 | Decomposition efficiency of glycitin family in roasted soy flour (pH2, heat treatment of enzyme yes, reaction time 6 h): 10.4 | Decomposition efficiency of glycitin family in soymilk (pH2.3, heat treatment of enzyme no, reaction time 0 h): 7.2 | Decomposition efficiency of glycitin family in soymilk (pH2.3, heat treatment of enzyme no, reaction time 1 h): 48.7 | Decomposition efficiency of glycitin family in soymilk (pH2.3, heat treatment of enzyme no, reaction time 3 h): 52.3 | Decomposition efficiency of glycitin family in soymilk (pH2.3, heat treatment of enzyme no, reaction time 6 h): 53.5 | Decomposition efficiency of glycitin family in soymilk (pH2.3, heat treatment of enzyme yes, reaction time 6 h): 6.9 | Decomposition efficiency of glycitin family in defatted soybean (pH2.6, heat treatment of enzyme: no, reaction time 0 h): not detected | Decomposition efficiency of glycitin family in defatted soybean (pH2.6, heat treatment of enzyme: no, reaction time 1 h): not detected | Decomposition efficiency of glycitin family in defatted soybean (pH2.6, heat treatment of enzyme: no, reaction time 3 h): not detected | Decomposition efficiency of glycitin family in defatted soybean (pH2.6, heat treatment of enzyme: no, reaction time 6 h): not detected | Decomposition efficiency of glycitin family in defatted soybean (pH2.6, heat treatment of enzyme: yes, reaction time 6 h): not detected | Decomposition efficiency of glycitin family in concentrated soybean protein (pH2.7, heat treatment of enzyme: no, reaction time 0 h): 11.3% | Decomposition efficiency of glycitin family in concentrated soybean protein (pH2.7, heat treatment of enzyme: no, reaction time 1 h): 25.0% | Decomposition efficiency of glycitin family in concentrated soybean protein (pH2.7, heat treatment of enzyme: no, reaction time 3 h): 25.7% | Decomposition efficiency of glycitin family in concentrated soybean protein (pH2.7, heat treatment of enzyme: no, reaction time 6 h): 29.2% | Decomposition efficiency of glycitin family in concentrated soybean protein (pH2.7, heat treatment of enzyme: yes, reaction time 6 h): 11.5% | Decomposition efficiency of glycitin family in roasted soy flour (pH3, heat treatment of enzyme no, reaction time 0 h): 7.9 | Decomposition efficiency of glycitin family in roasted soy flour (pH3, heat treatment of enzyme no, reaction time 1 h): 61.3 | Decomposition efficiency of glycitin family in roasted soy flour (pH3, heat treatment of enzyme no, reaction time 3 h): 69.2 | Decomposition efficiency of glycitin family in roasted soy flour (pH3, heat treatment of enzyme no, reaction time 6 h): 68.3 | Decomposition efficiency of glycitin family in roasted soy flour (pH3, heat treatment of enzyme yes, reaction time 6 h): 9.3 | Decomposition efficiency of glycitin family in defatted soybean (pH3.4, heat treatment of enzyme: no, reaction time 0 h): not detected | Decomposition efficiency of glycitin family in defatted soybean (pH3.4, heat treatment of enzyme: no, reaction time 1 h): not detected | Decomposition efficiency of glycitin family in defatted soybean (pH3.4, heat treatment of enzyme: no, reaction time 3 h): not detected | Decomposition efficiency of glycitin family in defatted soybean (pH3.4, heat treatment of enzyme: no, reaction time 6 h): not detected | Decomposition efficiency of glycitin family in defatted soybean (pH3.4, heat treatment of enzyme: yes, reaction time 6 h): not detected | Decomposition efficiency of glycitin family in soymilk (pH3.5, heat treatment of enzyme no, reaction time 0 h): 7.2 | Decomposition efficiency of glycitin family in soymilk (pH3.5, heat treatment of enzyme no, reaction time 1 h): 78.1 | Decomposition efficiency of glycitin family in soymilk (pH3.5, heat treatment of enzyme no, reaction time 3 h): 100.0 | Decomposition efficiency of glycitin family in soymilk (pH3.5, heat treatment of enzyme no, reaction time 6 h): 100.0 | Decomposition efficiency of glycitin family in soymilk (pH3.5, heat treatment of enzyme yes, reaction time 6 h): 7.6 | Decomposition efficiency of glycitin family in concentrated soybean protein (pH3.7, heat treatment of enzyme: no, reaction time 0 h): 11.1% | Decomposition efficiency of glycitin family in concentrated soybean protein (pH3.7, heat treatment of enzyme: no, reaction time 1 h): 66.7% | Decomposition efficiency of glycitin family in concentrated soybean protein (pH3.7, heat treatment of enzyme: no, reaction time 3 h): 73.5% | Decomposition efficiency of glycitin family in concentrated soybean protein (pH3.7, heat treatment of enzyme: no, reaction time 6 h): 77.5% | Decomposition efficiency of glycitin family in concentrated soybean protein (pH3.7, heat treatment of enzyme: yes, reaction time 6 h): 11.3% | Decomposition efficiency of glycitin family in roasted soy flour (pH4, heat treatment of enzyme no, reaction time 0 h): 8.6 | Decomposition efficiency of glycitin family in roasted soy flour (pH4, heat treatment of enzyme no, reaction time 1 h): 81.2 | Decomposition efficiency of glycitin family in roasted soy flour (pH4, heat treatment of enzyme no, reaction time 3 h): 91.8 | Decomposition efficiency of glycitin family in roasted soy flour (pH4, heat treatment of enzyme no, reaction time 6 h): 100.0 | Decomposition efficiency of glycitin family in roasted soy flour (pH4, heat treatment of enzyme yes, reaction time 6 h): 9.0 | Decomposition efficiency of glycitin family in soymilk (pH4.8, heat treatment of enzyme no, reaction time 0 h): 6.2 | Decomposition efficiency of glycitin family in soymilk (pH4.8, heat treatment of enzyme no, reaction time 1 h): 63.0 | Decomposition efficiency of glycitin family in soymilk (pH4.8, heat treatment of enzyme no, reaction time 3 h): 78.9 | Decomposition efficiency of glycitin family in soymilk (pH4.8, heat treatment of enzyme no, reaction time 6 h): 91.7 | Decomposition efficiency of glycitin family in soymilk (pH4.8, heat treatment of enzyme yes, reaction time 6 h): 6.5 | Decomposition efficiency of glycitin family in defatted soybean (pH4.8, heat treatment of enzyme: no, reaction time 0 h): 36.0% | Decomposition efficiency of glycitin family in defatted soybean (pH4.8, heat treatment of enzyme: no, reaction time 1 h): 59.9% | Decomposition efficiency of glycitin family in defatted soybean (pH4.8, heat treatment of enzyme: no, reaction time 3 h): 62.5% | Decomposition efficiency of glycitin family in defatted soybean (pH4.8, heat treatment of enzyme: no, reaction time 6 h): 68.1% | Decomposition efficiency of glycitin family in defatted soybean (pH4.8, heat treatment of enzyme: yes, reaction time 6 h): 43.8%
